Measured values: patent US20160109459A1, “Compositions And Methods For Heparan Sulfate As A Biomarker For Transplant Rejection” (Duke University, priority 2012, published 2016)

Legend:
[1] = system: C57BL/6 recipients of C3H.SW TCD-BM and LCs (GVHD); experiment: Second GVHD model (C3H.SW→C57BL/6); type: in vivo, mouse; details: A1AT 2 mg i.p. every 3 days; p=0.032
Description: FIG. 7A is a graph showing serum HS concentrations at the indicated time points following Allo-HSCT (B10.D2→BALB/c; 1×10^7 B10.D2 TCD-BM and 5×10^6 B10.D2 LC) treated with A1AT (2 mg) or PBS every 3 days by i.p. injection, starting 1 day prior to transplantation; n=3 per data point, as determined by ELISA assay; *p<0.05. FIG. 7B is a graph showing survival and FIG. 7C is a graph showing GVHD clinical score of Allo-BM only (n=5) or Allo-BM+LC treated with A1AT (n=8) or PBS (n=5). Data is from one of two independent experiments with identical results. […] Survival of BALB/c recipients of Allo-BM+LC from B10.D2 donors (n=11) and TLR4^−/− BALB/c recipients of Allo-BM+LC from B10.D2 donors administered A1AT (n=8) or PBS (n=14) every 3 days by intraperitoneal injection, starting 1 day prior to transplantation.
In another model of acute GVHD, 5×10^6 lymph node cells and 1×10^7 TCD BM from C3H.SW were transferred to C57BL/6 recipients irradiated with 10 Gy. HSCT recipients of these two GVHD models then received either intraperitoneal (i.p.) injections of 2 mg of al-antitrypsin (A1AT, Aralast™, Baxter, Deerfield, United States) resuspended in 200 μL sterile phosphate-buffered saline (PBS), subcutaneous (s.c.) injections of 20 mg/kg PG545 (Progen Pharmaceuticals Limited, Queensland, Australia) in 200 μL PBS, or 200 μL PBS alone at the indicated intervals. […]

[2] = system: BALB/c recipients of B10.D2 Allo-BM+LC (GVHD); experiment: Murine Allo-HSCT model of GVHD (B10.D2→BALB/c); type: in vivo, mouse
Description: BALB/c recipient of B10.D2 Allo-BM+LC were treated with subcutaneous injections of the HS mimetic, PG545 (20 mg/kg in PBS), or PBS control once weekly, beginning 1 day prior to Allo-HSCT. […] FIG. 9C is a graph showing survival analysis of Allo-BM+LC+PG545 (n=10) compared to Allo-BM+LC+PBS (n=10).
Antibodies and flow cytometry: Anti-CD40 (HM40-3), anti-CD80 (16-10A1), anti-Thy1.1 (OX-7), anti-Ly5.1 (A20) anti-IFN-γ (XMG1.2), rat IgG1 isotype (R3-34), and the BrdU Flow Kit (FITC-labeled) were from BD Biosciences (San Jose, Calif., USA). Intracellular IFN-γ staining was performed as previously described. […] For in vivo BrdU labeling, mice were injected with 50 μg BrdU/gm i.p. 1 hour prior to analysis. Collection of flow cytometric data was acquired using a FACSCanto (BD Biosciences), and events were analyzed using FloJo software (Tree Star, Inc., Ashland, United States). […]
Allo-HSCT: For Allo-HSCT, wild-type (WT) and TLR4−/− BALB/c mice received myeloablative total-body irradiation (8.5 Gy) followed by intravenous infusion of 1×10^7 B10.D2 or BALB/c T-cell depleted bone marrow (TCD-BM). […] To induce GVHD, 5×10^6 lymph node cells from inguinal, axillary, cervical and mesenteric lymph nodes of B10.D2 or BALB/c mice were injected intravenously in addition to TCD-BM.
In another model of acute GVHD, 5×10^6 lymph node cells and 1×10^7 TCD BM from C3H.SW were transferred to C57BL/6 recipients irradiated with 10 Gy. HSCT recipients of these two GVHD models then received either intraperitoneal (i.p.) injections of 2 mg of al-antitrypsin (A1AT, Aralast™, Baxter, Deerfield, United States) resuspended in 200 μL sterile phosphate-buffered saline (PBS), subcutaneous (s.c.) injections of 20 mg/kg PG545 (Progen Pharmaceuticals Limited, Queensland, Australia) in 200 μL PBS, or 200 μL PBS alone at the indicated intervals.
In this model, lethally irradiated BALB/c mice were transplanted with 1×10^7 T cell-depleted bone marrow (TCD-BM) and 5×10^6 lymphocytes (LCs) from B10.D2 mice (Allo-BM+LC). Control mice received B10.D2 TCD-BM only (Allo-BM only) or syngeneic BALB/c TCD-BM and 5×10^6 BALB/c LCs (Syn-BM+LC).

BALB/c DCs = experiment: DC maturation: surface expression of CD40 and CD80 by FACS; type: cell-based, mouse; details: 24 h; HS 100 μg/mL, Pam3CSK4 2 μg/mL
Description: FIG. 3A is a graph showing WT, TLR4^−/−, or MyD88^−/− BALB/c DCs (2×10^5/well) were stimulated with LPS (100 ng/mL), HS (100 μg/mL), or Pam3CSK4 (2 μg/mL), or left unstimulated (media) for 24 hours, and measured for surface expression of co-stimulatory molecules CD40 and CD80 by FACS analysis. FIGS. 3B and 3C are graphs showing WT, MyD88^−/−, and TLR4^−/− BALB/c cultured DCs were co-cultured with media alone, LPS, HS, or Pam3CSK4 as in (A) and culture supernatants were tested for IL-6 (B) and IL-12 (C) by ELISA. Data are representative of three independent experiments; *p<0.05 compared with media alone.
To investigate how activation of DCs by HS promoted the alloreactive T cell response, an as DC maturation and production of pro-inflammatory cytokines are key initial events in triggering adaptive immune responses, the ability of HS to upregulate DC expression of costimulatory molecules, CD40 and CD80, and pro-inflammatory cytokines, IL-6 and IL-12 was tested.
Antibodies and flow cytometry: Anti-CD40 (HM40-3), anti-CD80 (16-10A1), anti-Thy1.1 (OX-7), anti-Ly5.1 (A20) anti-IFN-γ (XMG1.2), rat IgG1 isotype (R3-34), and the BrdU Flow Kit (FITC-labeled) were from BD Biosciences (San Jose, Calif., USA). Intracellular IFN-γ staining was performed as previously described. (Brennan, T. V. et al. (2008) Transplantation 85:247-55). For in vivo BrdU labeling, mice were injected with 50 μg BrdU/gm i.p. 1 hour prior to analysis. Collection of flow cytometric data was acquired using a FACSCanto (BD Biosciences), and events were analyzed using FloJo software (Tree Star, Inc., Ashland, United States).

[3] = system: purified T cells from C57BL/6 mice stimulated with bone marrow-derived BALB/c DCs; experiment: Allogeneic T cell proliferation assay (3H-thymidine incorporation, IFN-γ ELISA); type: cell-based, mouse; details: for alloreactive T cell proliferation compared to media alone: WT BALB/c DCs + C57BL/6 T cells, 72 h then 3H-thymidine 16 h, HS 100 μg/mL, HSP70 5 μg/mL, C12-iE-DAP 1 μg/mL, L18-MDP 1 μg/mL
Description: Cells were co-cultured either alone (media) or in the presence of LPS (100 ng/mL), Pam3CSK4 (2 μg/mL), hyaluronan (HA) (100 μg/mL), sonicated-HA (sHA) (100 μg/mL), fibronectin (FN) (100 μg/mL), fibrinogen (Fbn) (100 μg/mL), heparan sulfate (HS) (100 μg/mL), HSP70 (5 μg/mL), HMGB1 (1 μg/mL), C12-iE-DAP (1 μg/mL), or L18-MDP (1 μg/mL) for 72 hours, and then pulsed ^3H-thymidine for 16 hours. Proliferation was determined by ^3H incorporation and results are expressed as cpm±SEM. Baseline alloreactivity is indicated by the dotted line; *p<0.05 compared with media alone. […] Results are representative of three independent experiments.
T cell proliferation assay: DCs were generated from bone marrow as previously described. (Yang, Y. (2004) Nat. Immunol. 5:508-15). CD3^+ T cells were isolated from B6 mice using a CD3 negative selection magnetic bead kit (Invitrogen, Carlsbad, United States). Proliferation assays were performed as previously described. (Brennan, T. V. et al. (2008) Transplantation 85:247-55).
Purified T cells from C57BL/6 mice were stimulated with bone marrow-derived DCs from BALB/c mice and their proliferation was measured by the incorporation of ^3H-thymidine. DAMPs tested included proteins—fibronectin (FN), fibrinogen (Fbn), heat shock protein 70 (HSP70), and high-mobility group protein B1 (HMGB1); and glucosaminoglycans—heparan sulfate (HS) and hyaluronan (HA). For comparison, two well-described PAMPs, lipopolysaccharide (LPS) and a synthetic tripalmitoylated lipopeptide (Pam3CSK4) that are ligands of the TLR4 homodimer and the TLR1/2 heterodimer, respectively, were tested. As nucleotide-binding domain, leucine-rich repeat containing receptors (NLRB) are another family of innate immune receptors, ligands of NLR1 (C12-iE-DAP) and NLR2 (L18-MDP) were further tested.
Next, to investigate whether HS enhanced proliferation of allogeneic T cells was due to the stimulation of TLRs on DCs or T cells, because MyD88 is a common adaptor protein involved in the signal transduction of all TLRs with the exception of TLR3^9, HS was tested against DCs or T cells that were deficient for MyD88. For this purpose, T cells from WT or MyD88^−/− C57BL/6 mice were stimulated with DCs from WT or MyD88^−/− BALB/c mice in an allogeneic proliferation assay in the presence of HS, LPS, Pam3CSK4, or media alone.
HS has been shown as a TLR4 ligand, (Johnson, G. B. et al., (2002) J. Immunol. 168:5233-39; Johnson, G. B., Brunn, G. J. & Platt, J. L. (2004) J. Immunol. 172:20-24). To determine whether the absence of TLR4 expression on stimulating DCs would reduce HS-induced alloreactive T cell proliferation equivalent to MyD88 deficiency, purified T cells from C57BL/6 mice were co-cultured with irradiated WT, TLR4^−/−, and MyD88^−/− BALB/c DCs and proliferation was measured by the incorporation of ^3H-thymidine.
Cytokine analysis: Cell culture supernatants were obtained from DC cultures or T cell proliferation assays and assayed for IL-6, IL-12 and IFN-γ by ELISA (BD Biosciences) according to the manufacturer's standard protocols. HEK 293 supernatants were tested for human IL-8 by ELISA (BioLegend, San Diego, United States).
Allogenic heart transplants were performed between C57BL/6 donors and (BALB/c x DBA.1)F1 recipients. Serum HS was measured by ELISA Immunohistologic staining for HS and CD3 was performed on heart tx tissue. Bone marrow derived dendritic cells (DCs) and purified T cells from WT-, MyD88- or TLR4-deficient mice were used in MLR assays to test for proliferation and cytokine production in response to HS. CD40 and CD80 expression on stimulated DCs was measured by FACS. T cell proliferation was determined by ^3H-thymidine incorporation and CFSE dye dilution assay. HEK293 NF-kB-luciferase reporter cell lines stably expressing CD14, MD2, and TLR4 or TLR2 were used in assays of HS activity.

[4] = splenocytes six days after transplantation, vs PBS

## A1AT: α1-antitrypsin (Aralast, Baxter), serum serine protease inhibitor
[1]
  survival compared with PBS treated group: significant survival benefit
[2]; 3 weeks post-transplant, vs PBS
  GVHD pathology scores (ear skin): significantly lower
[2]; A1AT 2 mg i.p. every 3 days, PBS controls 28.0, p<0.001
  survival (MST): 48.5 days
[2]; Allo-BM+LC recipients, 10-point scale, p=0.03
  GVHD clinical score curve: significantly lower
[2]; TLR4−/− BALB/c recipients of B10.D2 Allo-BM+LC, p=0.30
  survival in TLR4−/− recipients compared to PBS treated TLR4−/− mice: no further survival benefit
[2]; days 9 and 14 following HSCT, A1AT 2 mg i.p. every 3 days from 1 day prior to transplant
  serum HS levels compared to PBS: significantly lower
[2]; [4]
  BrdU incorporation by donor Thy1.1+ T cells: significantly reduced
  IFN-γ production by donor Thy1.1+ T cells: significantly reduced

## Pam3CSK4 [reference compound]
BALB/c DCs
  upregulation of CD40 and CD80 on MyD88−/− DCs: but not on MyD88^−/− DCs
  upregulation of CD40 and CD80 on TLR4−/− DCs: able to upregulate
  upregulation of CD40 and CD80 on WT DCs: able to upregulate

## polymyxin B [PMB, reference compound]
[3]; PMB 10 ug/mL, LPS 100 ng/mL
  effect on LPS-induced proliferation: significant decrease

## CC(C)CCC[C@@H](C)[C@H]1CC[C@H]2[C@@H]3CC[C@H]4C[C@@H](O[C@@H]5O[C@H](COS(=O)(=O)O)[C@@H](O[C@H]6O[C@H](COS(=O)(=O)O)[C@@H](O[C@H]7O[C@H](COS(=O)(=O)O)[C@@H](O[C@H]8O[C@H](COS(=O)(=O)O)[C@@H](OS(=O)(=O)O)[C@H](OS(=O)(=O)O)[C@H]8OS(=O)(=O)O)[C@H](OS(=O)(=O)O)[C@H]7OS(=O)(=O)O)[C@H](OS(=O)(=O)O)[C@H]6OS(=O)(=O)O)[C@H](OS(=O)(=O)O)[C@H]5OS(=O)(=O)O)CC[C@]4(C)[C@H]3CC[C@]12C [PG545, reference compound]
[2]; PG545 20 mg/kg s.c. once per week from one day prior to transplant
  post-transplant serum HS levels compared to PBS: higher
[2]; PG545 20 mg/kg s.c. weekly, PBS 29, p<0.001
  rate of GVHD (survival analysis): 21 days
[2]; post-transplant day 6, PG545 20 mg/kg s.c. weekly, PBS 12.9±2.0, n=3, p<0.05
  percentage of proliferating donor CD8 T cells (BrdU uptake): 23.2±2.3

## CCCCCCCCCCCC(=O)N[C@H](CCC(=O)NC(CCCC(N)C(=O)O)C(=O)O)C(=O)O (some centres unmarked) [C12-iE-DAP, reference compound]
[3]
  alloreactive T cell proliferation compared to media alone: Neither of the NLR ligands tested produced a significant increase

## HSP70: heat shock protein 70 (Assay Designs), a DAMP [reference compound]
[3]
  alloreactive T cell proliferation compared to media alone: significantly increased
